# Key:
# Assay type in all cases: in vivo
# [1] = system: APPswe/PSΔE9 transgenic model of Alzheimer's disease; experiment: Morris water-maze test in Alzheimer's disease mice model; conditions: 100 mg/kg body weight/day in diet for 3 months; compared with the model group
# Description: The evodiamine treatment group was administrated in the standard diet plus evodiamine in a dose of 100 mg/kg body weight/day for 3 months. The model group received a standard diet as the placebo control. After a three-month continuous administration, the Morris water-maze tests were performed to test the effect of evodiamine on improvement of learning and memory abilities of the Alzheimer's disease mice model.
# [2] = system: IL-Iβ; experiment: ELISA of IL-Iβ in brain tissues of Alzheimer's disease model mice; conditions: 100 mg/kg body weight/day in diet for 3 months, compared with the model group
# Description: (§1) The evodiamine treatment group was administrated in the standard diet plus evodiamine in a dose of 100 mg/kg body weight/day for 3 months. The model group received a standard diet as the placebo control.
# [3] = system: IL-6; experiment: ELISA of IL-6 in brain tissues of Alzheimer's disease model mice; conditions: 100 mg/kg body weight/day in diet for 3 months, compared with the model group
# Description: as §1
# [4] = system: TNF-α; experiment: ELISA of TNF-α in brain tissues of Alzheimer's disease model mice; conditions: 100 mg/kg body weight/day in diet for 3 months, compared with the model group
# Description: as §1
# [5] = system: cyclaoxygenase-2 (COX-2); experiment: Western Blotting of COX-2 expression in brain tissue of Alzheimer's disease model mice; conditions: 100 mg/kg body weight/day in diet for 3 months, compared with the model group
# Description: The evodiamine treatment group was administrated in the standard diet plus evodiamine in a dose of 100 mg/kg body weight/day for 3 months. The model group received a standard diet as the placebo control. […] The inflammation is one of main reasons resulting in the pathological development of Alzheimer's disease, so Evodiamine can treat Alzheimer's disease.
substance,measurement,setting,value
Evodiamine,learning and memory abilities (Morris water-maze),[1],significantly improved
same,IL-Iβ in the brain tissues,[2],significantly decreased
same,IL-6 in the brain tissues,[3],significantly decreased
same,TNF-α in the brain tissues,[4],significantly decreased
same,expression of the cyclaoxygenase-2 (COX-2) in the brain tissue,[5],reduced

# Source: US20110275807A1, “Application of Evodiamine in preparing medicaments for Alzheimer's disease” (Institute of Laboratory Animal Science, Chinese Academy of …, priority 2010, published 2011)
